Results as given in patent US8101754B2, “Triazole compounds suitable for treating disorders that respond to modulation of the dopamine D3 receptor” (Abbott GmbH & Co. KG, priority 2004, dated 2012).
Like-named read-outs stand apart in the source and are kept apart here.

Assays:
[1] = biological target: T1, human dopamine D3 receptors (Homo sapiens, UniProt P35462); experiment: Dopamine D3 receptor binding ([125I]-iodosulpride displacement)
T1 construct: expressed in transfected cells; membranes)
Description: The substance to be tested was either dissolved in methanol/Chremophor® (BASF-AG) or in dimethyl sulfoxide and then diluted with water to the desired concentration.
Each assay mixture was run in triplicate.
The incubation buffer contained 50 mM tris, 120 mM NaCl, 5 mM KCl, 2 mM CaCl2, 2 mM MgCl2 and 0.1% bovine serum albumin, 10 μM quinolone and 0.1% ascorbic acid (prepared fresh daily). The buffer was adjusted to pH 7.4 with HCl.
Measurement and Analysis:
After having been incubated at 25° C. for 60 minutes, the assay mixtures were filtered through a Wathman GF/B glass fiber filter under vacuum using a cell collecting device. The filters were transferred to scintillation viols using a filter transfer system. After 4 ml of Ultima Gold® (Packard) have been added, the samples were shaken for one hour and the radioactivity was then counted in a Beta-Counter (Packard, Tricarb 2000 or 2200CA). The cpm values were converted into dpm using a standard quench series and the program belonging to the instrument.
The inhibition curves were analyzed by means of iterative nonlinear regression analysis using the Statistical Analysis System (SAS) which is similar to the “LIGAND” program described by Munson and Rodbard.

[2] = biological target: T2, human dopamine D2L receptors (long isoform) (Homo sapiens, UniProt P14416); experiment: Dopamine D2L receptor binding ([125I] iodospiperone), basis of selectivity Ki(D2)/Ki(D3); details: for D2/D3: Table 7, compounds of formula IIa; for Selectivity [Ki(D2)/Ki(D3)]: D2L vs D3
T2 construct: expressed in transfected cells; membranes)
Description: The substance to be tested was either dissolved in methanol/Chremophor® (BASF-AG) or in dimethyl sulfoxide and then diluted with water to the desired concentration. […] Each assay mixture was run in triplicate. The incubation buffer contained 50 mM tris, 120 mM NaCl, 5 mM KCl, 2 mM CaCl2, 2 mM MgCl2 and 0.1% bovine serum albumin. The buffer was adjusted to pH 7.4 with HCl. Measurement and Analysis: After having been incubated at 25° C. for 60 minutes, the assay mixtures were filtered through a Wathman GF/B glass fiber filter under vacuum using a cell collecting device. The filters were transferred to scintillation viols using a filter transfer system. After 4 ml of Ultima Gold® (Packard) have been added, the samples were shaken for one hour and the radioactivity was then counted in a Beta-Counter (Packard, Tricarb 2000 or 2200CA). The cpm values were converted into dpm using a standard quench series and the program belonging to the instrument. The inhibition curves were analyzed by means of iterative nonlinear regression analysis using the Statistical Analysis System (SAS) which is similar to the “LIGAND” program described by Munson and Rodbard.

[3] = Concentration of compounds in plasma and brain following oral dosing; assay type: in vivo, Sprague-Dawley rats; details: male rats, 10 mg/kg orally by gavage
Description: 2. Determination of the Concentration of Compounds in Plasma and Brain Following Dosing of Compounds in Animals
Male Sprague-Dawley rats were used in this study (2 to 4 per experiment). The animals were fasted overnight prior to dosing and throughout the duration of the study but were permitted water ad libitum.
Each rat received a 10 mg/kg (5 mL/kg) dose orally by gavage. At 0.5, 3 and 8 hours after drug administration, three animals were put under deep anesthesia using isoflurane and euthanized by bleeding (cardiac puncture) under deep isoflurane anesthesia. EDTA blood samples and brain tissue will be collected from each rat. Upon collection, the samples were promptly placed in an ice bath, and within 2 hours after sample collection, the blood was centrifuged at about 4° C. The resulting brain and plasma samples were placed in clean glass tubes and stored in a freezer until analysis.
The plasma samples were assayed for parent compound using appropriate liquid chromatography—mass spectrometry procedures. The results for compounds I are given in tables 2, and illustrate the high brain concentrations attainable with the compounds of the invention.

[4] = Table 7, compounds of formula IIa, read-out: D3
[5] = compounds II, read-out: Ki D3 values
[6] = Table 5, membranes of HEK-293 cells, read-out: Ki D3
[7] = Table 6, membranes of HEK-293 cells, read-out: ki D3

T2 sequence (P14416 whole entry, canonical isoform): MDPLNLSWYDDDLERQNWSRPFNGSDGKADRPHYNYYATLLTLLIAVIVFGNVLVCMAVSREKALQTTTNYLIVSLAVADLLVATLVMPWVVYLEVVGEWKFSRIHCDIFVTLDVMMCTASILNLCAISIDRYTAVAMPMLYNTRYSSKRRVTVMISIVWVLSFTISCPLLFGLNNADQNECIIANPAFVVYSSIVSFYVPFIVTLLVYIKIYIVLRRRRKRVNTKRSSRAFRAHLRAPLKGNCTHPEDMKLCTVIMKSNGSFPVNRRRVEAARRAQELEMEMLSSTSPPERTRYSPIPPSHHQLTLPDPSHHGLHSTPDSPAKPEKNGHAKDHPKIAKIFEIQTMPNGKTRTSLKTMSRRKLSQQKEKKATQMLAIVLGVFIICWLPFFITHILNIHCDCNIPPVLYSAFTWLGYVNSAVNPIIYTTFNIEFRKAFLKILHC
T1 sequence (P35462 whole entry): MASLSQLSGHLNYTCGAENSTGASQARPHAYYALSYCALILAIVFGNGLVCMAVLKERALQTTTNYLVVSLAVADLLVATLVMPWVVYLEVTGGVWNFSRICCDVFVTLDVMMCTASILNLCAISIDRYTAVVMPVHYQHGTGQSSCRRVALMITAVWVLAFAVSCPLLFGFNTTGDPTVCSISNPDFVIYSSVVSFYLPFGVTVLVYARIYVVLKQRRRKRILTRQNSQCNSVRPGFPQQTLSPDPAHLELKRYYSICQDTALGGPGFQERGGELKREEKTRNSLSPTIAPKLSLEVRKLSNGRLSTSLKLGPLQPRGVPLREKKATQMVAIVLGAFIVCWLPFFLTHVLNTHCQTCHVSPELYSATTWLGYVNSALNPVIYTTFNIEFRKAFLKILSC

With CCCc1cc(N2CCN(CCCSc3nnc(COC)n3C)CC2)nc(C(C)(C)C)n1.Cl [c.12, 2-tert-Butyl-4-{4-[3-(4-methyl-5-methoxymethyl-4H-[1,2,4]triazol-3-ylsulfanyl)-propyl]-piperazin-1-yl}-6-propyl-pyrimidine hydrochloride] the Ki [1, 4] was 2.4 nM, the Ki [1, 5] was less than 5 nM and the D2/D3 [2] was 143. It also gave a Brain level ([3]; Table 7) of 780 ng/g.

Cl.Cn1cnnc1SCCCN1CCN(c2cc(C(F)(F)F)nc(C(C)(C)C)n2)CC1 gave a melting point of 92 to 95 °C.

With COCc1nnc(SCCCN2CCN(c3cc(C(F)F)nc(C(C)(C)C)n3)CC2)n1C.Cl [c.4, 2-tert-Butyl-4-{4-[3-(4-methyl-5-methoxymethyl-4H-[1,2,4]triazol-3-ylsulfanyl)-propyl]-piperazin-1-yl}-6-difluoromethyl-pyrimidine hydrochloride] the Ki [1, 4] was 1.5 nM, the Ki [1, 5] was less than 5 nM and the D2/D3 [2] was 96. It also gave a Brain level ([3]; Table 7) of 290 ng/g.

Work on CCCc1cc(N2CCN(CCCSc3nnc(CC)n3C)CC2)nc(C(C)(C)C)n1.Cl [c.11, 2-tert-Butyl-4-{4-[3-(4-methyl-5-ethyl-4H-[1,2,4]triazol-3-ylsulfanyl)-propyl]-piperazin-1-yl}-6-propyl-pyrimidine hydrochloride] yielded a Ki [1, 4] of 1.7 nM, a D2/D3 [2] of 470 and a Brain level ([3]; Table 7) of 840 ng/g.

For Cc1nnc(S(=O)(=O)CCCN2CCN(c3cc(C(C)(C)C)nc(C(C)(C)C)n3)CC2)n1C [Example 4, 2,4-Di-tert-butyl-6-{4-[3-(4,5-dimethyl-4H-[1,2,4]triazole-3-sulfonyl)-propyl]-piperazin-1-yl}-pyrimidine], the Ki [1, 6] was 6.1 nM, the “Selectivity [Ki(D2)/Ki(D3)]” value ([2]; Table 5) was 34 and the Brain level ([3]; Table 5) was 1920 ng/g.

With Cn1cnnc1[S+]([O-])CCCN1CCN(c2cc(C(C)(C)C)nc(C(C)(C)C)n2)CC1 (stereo not shown) [Example 18, 2,4-Di-tert-butyl-6-{4-[3-(4-methyl-4H-[1,2,4]triazole-3-sulfinyl)-propyl]-piperazin-1-yl}-pyrimidine] the Ki [1, 7] was 25 nM and the “Selectivity [Ki(D2)/Ki(D3)]” value ([2]; Table 6) was 17.

For Cl.Cn1cnc([S+]([O-])CCCN2CCN(c3cc(C(F)(F)F)nc(C(C)(C)C)n3)CC2)n1 (stereo not shown) [Example 21, 2-tert-Butyl-4-{4-[3-(1-methyl-1H-[1,2,4]triazole-3-sulfinyl)-propyl]-piperazin-1-yl}-6-trifluoromethyl-pyrimidine hydrochloride], the Ki [1, 7] was 16.6 nM and the “Selectivity [Ki(D2)/Ki(D3)]” value ([2]; Table 6) was 18.

CCc1nnc(SCCCN2CCN(c3cc(C(F)(F)F)nc(C(C)(C)C)n3)CC2)n1C.Cl [c.15, 2-tert-Butyl-4-{4-[3-(4-methyl-5-ethyl-4H-[1,2,4]triazol-3-ylsulfanyl)-propyl]-piperazin-1-yl}-6-trifluoromethyl-pyrimidine hydrochloride] showed a Ki [1, 4] of 2 nM, a Ki [1, 5] of less than 5 nM and a D2/D3 [2] of 364. For the same molecule, the Brain level ([3]; Table 7) was 1410 ng/g.

In the case of CCCc1cc(N2CCN(CCCS(=O)(=O)c3ncn(C)n3)CC2)nc(C(C)(C)C)n1 [Example 29, 2-tert-Butyl-4-{4-[3-(1-methyl-1H-[1,2,4]triazole-3-sulfonyl)-propyl]-piperazin-1-yl}-6-propyl-pyrimidine], the Ki [1, 7] is reported as 20.3 nM and the “Selectivity [Ki(D2)/Ki(D3)]” value ([2]; Table 6) is reported as 59.

For CCCc1cc(N2CCN(CCCS(=O)(=O)c3nncn3C)CC2)nc(C(C)(C)C)n1 [Example 26, 2-tert-Butyl-4-{4-[3-(4-methyl-1H-[1,2,4]triazole-3-sulfonyl)-propyl]-piperazin-1-yl}-6-propyl-pyrimidine], the Ki [1, 7] was 44.6 nM and the “Selectivity [Ki(D2)/Ki(D3)]” value ([2]; Table 6) was 33.

For CC(C)(C)c1cc(N2CCN(CCCS(=O)(=O)c3nc[nH]n3)CC2)nc(C(C)(C)C)n1 [Example 22, 2,4-Di-tert-butyl-6-{4-[3-(1H-[1,2,4]triazole-3-sulfonyl)-propyl]-piperazin-1-yl}-pyrimidine], the Ki [1, 7] was 47.4 nM and the “Selectivity [Ki(D2)/Ki(D3)]” value ([2]; Table 6) was 19.

In the case of CCCc1cc(N2CCN(CCC[S+]([O-])c3nnc(CC)n3C)CC2)nc(C(C)(C)C)n1.Cl (stereo not shown) [Example 5, 2-tert-Butyl-4-{4-[3-(5-ethyl-4-methyl-4H-[1,2,4]triazole-3-sulfinyl)-propyl]-piperazin-1-yl}-6-propyl-pyrimidine hydrochloride], the Ki [1, 6] is reported as 38 nM and the “Selectivity [Ki(D2)/Ki(D3)]” value ([2]; Table 5) is reported as 37.

For Cn1cnc(S(=O)(=O)CCCN2CCN(c3cc(C(C)(C)C)nc(C(C)(C)C)n3)CC2)n1 [Example 27, 2,6-di-tert-Butyl-4-{4-[3-(1-methyl-1H-[1,2,4]triazole-3-sulfonyl)-propyl]-piperazin-1-yl}-pyrimidine], the Ki [1, 7] was 9.7 nM and the “Selectivity [Ki(D2)/Ki(D3)]” value ([2]; Table 6) was 24.

For CCCc1cc(N2CCN(CCC[S+]([O-])c3ncn(C)n3)CC2)nc(C(C)(C)C)n1.Cl (stereo not shown) [Example 28, 2-tert-Butyl-4-{4-[3-(1-methyl-1H-[1,2,4]triazole-3-sulfinyl)-propyl]-piperazin-1-yl}-6-propyl-pyrimidine hydrochloride], the Ki [1, 7] was 9.9 nM and the “Selectivity [Ki(D2)/Ki(D3)]” value ([2]; Table 6) was 158.

For CCCc1cc(N2CCN(CCC[S+]([O-])c3nnc(C)n3C)CC2)nc(C(C)(C)C)n1.Cl (stereo not shown) [Example 8, 2-tert-Butyl-4-{4-[3-(4,5-dimethyl-4H-[1,2,4]triazole-3-sulfinyl)-propyl]-piperazin-1-yl}-6-propyl-pyrimidine hydrochloride], the Ki [1, 6] was 56 nM and the “Selectivity [Ki(D2)/Ki(D3)]” value ([2]; Table 5) was 33.

For CC(C)(C)c1nc(N2CCN(CCCS(=O)(=O)c3nc[nH]n3)CC2)cc(C2(C)CC2)n1 [Example 31, 2-tert-butyl-6-{4-[3-(1H-[1,2,4]triazole-3-sulfonyl)-propyl]-piperazin-1-yl}-6-(1-methyl)cyclopropyl-pyrimidine], the Ki [1, 7] was 22.6 nM and the “Selectivity [Ki(D2)/Ki(D3)]” value ([2]; Table 6) was 37.

For Cn1cnnc1[S+]([O-])CCCN1CCN(c2cc(C3CCC3)nc(C(C)(C)C)n2)CC1 (stereo not shown) [Example 3, 2-tert-Butyl-4-cyclobutyl-6-{4-[3-(4-methyl-4H-[1,2,4]triazole-3-sulfinyl)-propyl]-piperazin-1-yl}-pyrimidine], the Ki [1, 6] was 12 nM and the “Selectivity [Ki(D2)/Ki(D3)]” value ([2]; Table 5) was 44.

For Cn1cnnc1S(=O)(=O)CCCN1CCN(c2cc(C3CCCC3)nc(C(C)(C)C)n2)CC1 [Example 24, 2-tert-Butyl-4-{4-[3-(4-methyl-1H-[1,2,4]triazole-3-sulfonyl)-propyl]-piperazin-1-yl}-6-cyclopentyl-pyrimidine], the Ki [1, 7] was 7.5 nM and the “Selectivity [Ki(D2)/Ki(D3)]” value ([2]; Table 6) was 20.

With Cc1nnc([S+]([O-])CCCN2CCN(c3cc(C(C)(C)C)nc(C(C)(C)C)n3)CC2)n1C (racemic) [Example 1, 2,4-Di-tert-butyl-6-{4-[3-(4,5-dimethyl-4H-[1,2,4]triazole-3-sulfinyl)-propyl]-piperazin-1-yl}-pyrimidine] the Ki [1, 6] was 19.5 nM, the “Selectivity [Ki(D2)/Ki(D3)]” value ([2]; Table 5) was 26 and the Brain level ([3]; Table 5) was 1670 ng/g.

Cl.Cn1c(SCCCN2CCN(c3cc(C(F)(F)F)nc(C(C)(C)C)n3)CC2)nnc1C1CC1 [c.17, 2-tert-Butyl-4-{4-[3-(4-methyl-5-cyclopropyl-4H-[1,2,4]triazol-3-ylsulfanyl)-propyl]-piperazin-1-yl}-6-trifluoromethyl-pyrimidine hydrochloride] showed a Ki [1, 4] of 0.9 nM, a Ki [1, 5] of less than 5 nM and a D2/D3 [2] of 293. The melting point was 182 to 184 °C.

In the case of Cn1c(-c2ccc(F)cc2)nnc1[S+]([O-])CCCN1CCN(c2cc(C(F)(F)F)nc(C(C)(C)C)n2)CC1 (stereo not shown) [Example 15, 2-tert-Butyl-4-(4-{3-[5-(4-fluoro-phenyl)-4-methyl-4H[1,2,4]triazole-3-sulfinyl]-propyl}-piperazin-1-yl)-6-trifluoromethyl-pyrimidine], the Ki [1, 6] is reported as 12.6 nM and the “Selectivity [Ki(D2)/Ki(D3)]” value ([2]; Table 5) is reported as 100.
